Laboratory results reported in patent US5444042A, “Method of treatment of neurodegeneration with calpain inhibitors” (Cortex Pharmaceuticals, priority 1994, dated 1995).
Like-named read-outs stand apart in the source and are kept apart here.

Legend:
Papain = target: T1, Papain (Carica papaya, UniProt P00784); experiment: Papain inhibition, Ki by Dixon plot (Table PKC1); format: biochemical; settings: 5 mM cysteine, 25° C.
T1 sequence (P00784 134-345): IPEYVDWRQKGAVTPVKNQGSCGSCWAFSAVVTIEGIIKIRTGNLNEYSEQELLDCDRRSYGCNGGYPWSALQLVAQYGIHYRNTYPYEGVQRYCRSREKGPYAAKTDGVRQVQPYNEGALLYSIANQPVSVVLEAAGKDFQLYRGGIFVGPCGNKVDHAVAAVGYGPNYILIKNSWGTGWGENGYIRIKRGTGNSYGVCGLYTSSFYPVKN
Procedure: (§1) Various concentrations of inhibitors in dimethylsulfoxide (DMSO) were added to the assay mixture, which contained buffer and substrate. The reaction was started by the addition of the enzyme and the hydrolysis rates were followed spectrophotometrically or fluorimetrically. 88 mM KH2 PO4, 12 mM Na2 HPO4, 1.33 mM EDTA, 2.7 mM cysteine, pH 6.0 was used as a buffer for cathepsin B; and 20 mM Hepes, 10 mM CaCl2, 10 mM β-mercaptoethanol, pH 7.2 buffer was utilized for calpain I and calpain II.
(§2) All peptide thioester hydrolysis rates were measured with assay mixtures containing 4,4'-dithiodipyridine [e324=19800 M-1 cm-1; Grasetti & Murray, Arch. Biochem. Biophys. 119, pp 41-49 (1967)]. Papain was assayed with Bz-Arg-AMC or Bz-Arg-NA [Kanaoka et al., Chem. Pharm. Bull. 25, 3126-3128 (1977)], and the AMC (7-amino-4-methylcoumarin) release was followed fluorimetrically (excitation at 380 nm, and emission at 460 nm). Cathepsin B was assayed with Z-Arg-Arg-AFC [Barrett and Kirschke, Methods Enzymol. 80, 535-561 (1981)], and the AFC (7-amino-4-trifluoromethylcoumarin) release was followed fluorimetrically (excitation at 400 nm, and emission at 505 nm). Calpain I from human erythrocytes and calpain II from rabbit were assayed using Suc-Leu-Tyr-AMC [Sasaki et al., J. Biol. Chem. 259, 12489-12494 (1984), hereby incorporated by reference], and the AMC (7-amino-4-methylcoumarin) release was followed fluorimetrically (excitation at 380 nm, and emission at 460 nm). Enzymatic hydrolysis rates were measured at various substrate and inhibitor concentrations, and Ki values were determined by Dixon plot.
The inhibition constants for papain shown in Table PKC1 were measured in 0.05M Tris-HCl, pH 7.5 buffer, containing 2 mM EDTA, 5 mM cysteine (freshly prepared), 1% DMSO, at 25° C., using N^α -Benzoyl-Arg-AMC as a substrate, except that those values of inhibition constants for papain marked with an "e" in Table PKC1 were measured in 50 mM Tris-HCl, pH 7.5 buffer, containing 20 mM EDTA, 5 mM cysteine, 9% DMSO, at 25° C., using N^α -Benzoyl-Arg-NA as a substrate.

Cathepsin B [1] = target: T2, Cathepsin B (Bos taurus, UniProt P07688); experiment: Cathepsin B inhibition, Z-Arg-Arg-AFC (Table PKC1); format: biochemical; settings: pH 6.0 phosphate buffer, substrate Z-Arg-Arg-AFC; read-out: Ki CB (Cathepsin B)
Procedure: as §1, §2

Calpain within platelets = experiment: Platelet membrane permeation assay, spectrin proteolysis (Examples 4A, 4B); format: cell-based, rat; settings: for effect on intracellular (platelet) Calpain: concentration not given; for inhibition of Calpain within platelets: A23187 1 μM; for IC50: concentration at which 50% of the Calpain activation present in controls occurred
Procedure: Platelets were isolated by a modification of the method of Ferrell and Martin, J Biol. Chem., 264:20723-20729 (1989), the disclosure of which is hereby incorporated by reference. Blood (15-20 ml) was drawn from male Sprague-Dawley rats into 100 mM EDTA-citrate containing 10 units heparin, and centrifuged 30 minutes at 1600 rpm at room temperature. The plasma was resuspended in 15 ml buffer 1 (136 mM NaCl, 2.7 mM KCl, 0.42 mM NaH2 PO4, 12 mM NaHCO3, 2 mM MgCl2, 2 mg/ml BSA (Sigma), 5.6 mM glucose, 22 mM Na3 Citrate pH 6.5) and platelets were isolated at 2200 rpm at room temperature of 25 minutes. Platelets were resuspended to 10^7 cells/ml in buffer 2 (136 mM NaCl, 2.7 mM KCl, 0.42 NaH2 PO4, 12 mM NaHCO3, 2 mM MgCl, 1 mg/ml BSA, 5.6 mM glucose, 20 mM HEPES pH 7.4) and allowed to "rest" for a minimum of 10 minutes at room temperature before use.
Platelets were incubated for 5 minutes in the presence of inhibitor. In order to provide sufficient intracellular calcium to activate Calpain, the calcium ionophore A23187 was added to a final concentration of 1 μM. After a further 5 minute incubation, the platelets were harvested by centrifugation (1 min 10,000×g) and resuspended in 10% sodium dodecyl sulfate, 10 mM Tris pH=8.0, 5% β-mercaptoethanol, 0.02% bromophenol blue, and heated to 95° C. for 5 min. Samples were subjected to SDS-PAGE on 6% mini gels and transferred to nitrocellulose (Schleicher and Schuell BAS3) for 2 hours at 100 mA/gel in an LKB Novablot. Filters were blocked for 10 minutes in 0.25% gelatin, 1% BSA, 0.25% Triton X100, 0.9% NaCl, 10 mM Tris-Cl pH 7.5, incubated overnight in the same solution containing antibody to rat spectrin, washed 3×10 minutes with 10 mM Tris-Cl pH 7.5, 0.5 % Triton X100, incubated 4 hours in wash buffer plus alkaline phosphatase conjugated goat anti-rabbit antibody (Biorad), and washed as above. Filters were developed using the Biorad AP conjugate substrate kit. Spectrin immunoreactivity on the filters was quantitated by densitometry.

[2] = tested on: Calpain in crude brain extracts; experiment: Ca2+-stimulated spectrin proteolysis in crude brain extracts (Example 2); format: biochemical; settings: 100 μM
Procedure: The activity of Calpain in crude brain extracts was measured by examining the Ca^2+ -stimulated proteolysis of the endogenous substrate spectrin. Brain tissue was homogenized in 10 mM Tris pH=7.4, 0.32M sucrose, 1 mM EGTA, 1 mM dithiothreitol and the nuclei and debris removed by low speed centrifugation. […] Proteolysis of spectrin was evaluated by western blot as described by Seubert, et at. (Brain Research, 459:226-232, 1988), the disclosure of which is hereby incorporated by reference. Briefly, a known quantity of a spectrin-containing sample treated with Calpain is separated by SDS-PAGE and immunoblotted with anti-spectrin antibody. The amount of spectrin immunoreactivity found corresponding to the characteristic BDP's is indicative of the amount of […] activity present in the sample. An examplary method for quantitating BDP's is to assay Spectrin BDP's by homogenizing brain parts in 20 mM Tris pH=7.2, 0.32M sucrose, 50 μM Ac-Leu-Leu-nLeu-H on ice. Homogenates are then mixed 1:1 with 10% SDS, 5% β-mercaptoethanol, 10% glycerol, 10 mM Tris pH=8.0, 0.5% bromophenolblue, heated to 95° C., and subjected to electrophoresis in 41/2% polyacrylamide gels. The proteins in the gels are transferred to nitrocellulose and the spectrin and BDP's detected using a rabbit polyclonal anti-spectrin antibody and established immunodetection methods. The amount of spectrin and BDP's in each sample can be quantitated by densitrometric scanning of the developed nitrocellulose.

Cathepsin B [3] = target: T2, Cathepsin B; experiment: Cathepsin B KI (Table 1B(ii)); format: biochemical; settings: read-out: KI CathB
Source text: (§3) We tested the ability of an additional group of Peptide Keto-Compounds to inhibit several proteases in order to evaluate their specificity for Calpain.

PP Elastase = PP Elastase (Sus scrofa, UniProt P00772); experiment: PP Elastase KI (Table 1B(ii)); format: biochemical
Source text: as §3

Calpain I = target: T3, Calpain I (Homo sapiens, UniProt P07384); experiment: Calpain I KI (Table 1B(ii)); format: biochemical; settings: Table 1B(ii)
T3 sequence (P07384 1-714): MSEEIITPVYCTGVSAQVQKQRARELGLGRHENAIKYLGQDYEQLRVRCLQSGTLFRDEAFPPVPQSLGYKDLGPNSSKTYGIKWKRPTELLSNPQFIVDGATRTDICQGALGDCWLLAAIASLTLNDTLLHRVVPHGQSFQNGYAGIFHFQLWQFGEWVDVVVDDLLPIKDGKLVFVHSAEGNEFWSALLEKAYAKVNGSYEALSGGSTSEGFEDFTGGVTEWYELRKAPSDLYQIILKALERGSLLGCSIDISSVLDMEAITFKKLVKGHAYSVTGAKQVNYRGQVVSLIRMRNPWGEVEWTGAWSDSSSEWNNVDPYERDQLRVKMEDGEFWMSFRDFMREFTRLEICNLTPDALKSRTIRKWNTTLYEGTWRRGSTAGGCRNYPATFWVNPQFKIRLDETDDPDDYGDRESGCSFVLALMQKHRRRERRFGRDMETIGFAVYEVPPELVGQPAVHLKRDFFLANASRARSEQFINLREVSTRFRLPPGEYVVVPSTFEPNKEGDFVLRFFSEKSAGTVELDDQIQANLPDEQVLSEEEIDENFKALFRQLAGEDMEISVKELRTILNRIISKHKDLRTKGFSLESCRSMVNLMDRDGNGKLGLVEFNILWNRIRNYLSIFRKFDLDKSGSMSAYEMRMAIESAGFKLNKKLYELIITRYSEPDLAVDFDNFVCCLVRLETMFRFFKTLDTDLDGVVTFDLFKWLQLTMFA
T3 sequence (P04632 1-268 partner): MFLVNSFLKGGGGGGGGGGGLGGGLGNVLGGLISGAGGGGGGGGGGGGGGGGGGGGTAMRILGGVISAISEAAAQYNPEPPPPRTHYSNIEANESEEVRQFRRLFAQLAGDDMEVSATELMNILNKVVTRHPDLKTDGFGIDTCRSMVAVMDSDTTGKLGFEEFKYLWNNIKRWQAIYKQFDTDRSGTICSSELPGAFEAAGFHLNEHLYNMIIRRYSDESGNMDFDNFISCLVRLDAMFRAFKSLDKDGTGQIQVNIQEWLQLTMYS
Source text: as §3

Chym = Chym (Bos taurus, UniProt P00766); experiment: Chym KI (Table 1B(ii)); format: biochemical
Source text: as §3

Stability in plasma = format: in vitro ADME; settings: unit assumed
Source text: We determined the haft-life of several Peptide Keto-Compounds in both plasma and liver homogenates.

Calpain II = Calpain II KI (Table 1B(ii)); format: biochemical
Source text: as §3

[4] = 50 mM Tris-HCl pH 7.5, 20 mM EDTA, 9% DMSO, substrate Nα-Benzoyl-Arg-NA, read-out: Ki P (Papain), values marked e
[5] = 0.05M Tris-HCl pH 7.5, 2 mM EDTA, 1% DMSO, substrate Nα-Benzoyl-Arg-AMC, read-out: Ki P (Papain)

PP Elastase, sequence (P00772 27-266): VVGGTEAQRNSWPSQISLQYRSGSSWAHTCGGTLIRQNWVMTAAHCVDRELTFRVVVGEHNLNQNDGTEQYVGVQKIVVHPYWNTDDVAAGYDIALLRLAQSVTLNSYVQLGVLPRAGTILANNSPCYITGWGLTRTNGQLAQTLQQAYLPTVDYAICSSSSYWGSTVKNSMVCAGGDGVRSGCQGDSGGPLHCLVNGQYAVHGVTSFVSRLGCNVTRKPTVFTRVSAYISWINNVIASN

| Ki (Cathepsin B [3]) | Ki (PP Elastase) | Ki (Calpain I) | Ki (Chym) | t1/2 plasma (Stability in plasma) | Compound | Ki (Cathepsin B [1]) | Ki (Papain; [5]) | inhibition of Calpain within platelets (Calpain within platelets; 100 μM) | further results |
| --- | --- | --- | --- | --- | --- | --- | --- | --- | --- |
| – | – | – | – | – | CCOC(=O)C(=O)C(Cc1ccccc1)NC(=O)c1ccccc1 (racemic) [Bz-DL-Phe-COOEt, Bz-DL-Phe-CO2 Et] | 64 µM | – | – | Ki (Papain; [4]): 500 µM; effect on intracellular (platelet) Calpain (Calpain within platelets): failed to exhibit Calpain inhibitory activity; inhibition of spectrin proteolysis in crude brain extracts [2]: significant inhibition |
| – | – | – | – | – | COC(=O)CCC(=O)NC(C(=O)N1CCCC1C(=O)NC(Cc1ccccc1)C(=O)C(=O)OC)C(C)C (racemic) [MeO-Suc-Val-Pro-DL-Phe-COOMe, MeO-Suc-Val-Pro-DL-Phe-CO2 Me] | 0.1 µM | 1.1 µM | – | Ki (Papain; [4]): 2.9 µM; effect on intracellular (platelet) Calpain (Calpain within platelets): failed to exhibit Calpain inhibitory activity; inhibition of spectrin proteolysis in crude brain extracts [2]: significant inhibition |
| – | – | – | – | – | CCC(NC(=O)[C@H](C)NC(=O)[C@H](C)NC(=O)OCc1ccccc1)C(=O)C(=O)OCc1ccccc1 (mixture of isomers) [Z-Ala-Ala-DL-Abu-COOBzl, Z-Ala-Ala-DL-Abu-CO2 Bzl] | 60 µM | 30 µM | significant inhibition | – |
| – | – | – | – | – | CCCC(NC(=O)C(C)NC(=O)C(C)NC(=O)OCc1ccccc1)C(=O)C(=O)OCC (racemic) [Z-Ala-Ala-DL-Nva-COOEt, Z-Ala-Ala-DL-Nva-CO2 Et] | 0.1 µM | 30 µM | – | – |
| – | – | – | – | – | CCOC(=O)C(=O)C(C)NC(=O)[C@@H]1CCCN1C(=O)[C@H](C)NC(=O)OCc1ccccc1 (mixture of isomers) [Z-Ala-Pro-DL-Ala-COOEt, Z-Ala-Pro-DL-Ala-CO2 Et] | 66 µM | 26 µM | – | – |
| – | – | – | – | – | CCOC(=O)C(=O)C(C)NC(=O)C(Cc1ccccc1)NC(=O)OCc1ccccc1 (racemic) [Z-Phe-DL-Ala-COOEt] | 3.2 µM | 3.6 µM | – | – |
| – | – | – | – | – | CCOC(=O)C(=O)C(Cc1ccccc1)NC(=O)C(Cc1ccccc1)NC(=O)OCc1ccccc1 (racemic) [Z-Phe-DL-Phe-COOEt] | 0.1 µM | 1.8 µM | – | – |
| 25 µM | 47 µM | 16 µM | 35 µM | > 60 min | CCOC(=O)C(=O)C(CC)NC(=O)C(CC(C)C)NC(=O)C(CC(C)C)NS(=O)(=O)c1ccc2ccccc2c1 (stereo not drawn) [2-NapSO2 -Leu-Leu-Abu-COOEt] | – | – | significant inhibition | IC50 (Calpain within platelets): 100 µM; Ki (Calpain II): 1.4 µM |
| 69 µM | 28 µM | 33 µM | 25 µM | 30 min | CCOC(=O)C(=O)[C@H](CC)NC(=O)[C@H](CC(C)C)NC(=O)[C@H](CC(C)C)NS(=O)(=O)c1ccc(C)cc1 [Tos-Leu-Leu-Abu-COOEt] | – | – | – | IC50 (Calpain within platelets): 30 µM |

| Compound | Ki (Cathepsin B [3]) | Ki (PP Elastase) | Ki (Calpain I) | Ki (Chym) | t1/2 plasma (Stability in plasma) | Ki (Cathepsin B [1]) | Ki (Papain; [5]) | inhibition of Calpain within platelets (Calpain within platelets; 100 μM) | further results |
| --- | --- | --- | --- | --- | --- | --- | --- | --- | --- |
| CCCCOC(=O)C(=O)[C@H](Cc1ccccc1)NC(=O)[C@H](CC(C)C)NC(=O)OCc1ccccc1 [Z-Leu-Phe-COOnBu, Z-Leu-Phe-CO2 Bu] | 15 µM | > 100 µM | 5 µM | 0.15 µM | 7.7 min | – | – | significant inhibition | platelet assay, semi-quantitative (Calpain within platelets; semi-quantitative, 100 μM): +++; Ki (Calpain II): 1.1 µM |
